Series [1] has as its target T1, Nuclear factor NF-kappa-B complex (Homo sapiens) (UniProt Q00653+P19838+Q04206). Put plainly: Inhibition of NF-kappaB activation in human HGC-27 cells assessed as downregulation of NF-kappaB phosphorylation at 10 uM for 48 hrs by DAPI staining based immunofluorescence assay. Format: cell-based.
Series [2] has as its target T2, DNA topoisomerase 1 (Homo sapiens, UniProt P11387).
T2 sequence (P11387 whole entry): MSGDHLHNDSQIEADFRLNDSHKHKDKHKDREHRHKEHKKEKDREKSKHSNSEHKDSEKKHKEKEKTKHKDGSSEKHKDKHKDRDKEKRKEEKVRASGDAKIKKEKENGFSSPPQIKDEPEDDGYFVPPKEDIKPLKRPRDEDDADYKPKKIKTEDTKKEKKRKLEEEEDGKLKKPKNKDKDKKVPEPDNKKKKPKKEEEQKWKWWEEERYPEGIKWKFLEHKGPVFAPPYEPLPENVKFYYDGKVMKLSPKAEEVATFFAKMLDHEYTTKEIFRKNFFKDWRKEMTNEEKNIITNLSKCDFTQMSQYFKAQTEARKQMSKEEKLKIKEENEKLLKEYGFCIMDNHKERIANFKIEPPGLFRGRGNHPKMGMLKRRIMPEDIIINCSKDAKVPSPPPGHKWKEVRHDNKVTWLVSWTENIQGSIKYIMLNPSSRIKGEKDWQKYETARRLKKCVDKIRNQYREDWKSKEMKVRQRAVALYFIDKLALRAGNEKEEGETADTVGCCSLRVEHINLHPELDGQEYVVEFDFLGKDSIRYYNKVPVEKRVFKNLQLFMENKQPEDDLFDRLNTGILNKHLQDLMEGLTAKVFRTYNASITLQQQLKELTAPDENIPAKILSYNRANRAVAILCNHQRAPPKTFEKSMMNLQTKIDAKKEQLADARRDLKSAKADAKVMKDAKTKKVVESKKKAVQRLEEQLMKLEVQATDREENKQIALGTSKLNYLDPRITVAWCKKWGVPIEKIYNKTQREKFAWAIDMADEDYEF
Put plainly: Inhibition of human topoisomerase I assessed as DNA relaxation using DNA pBR322 as substrate incubated for 30 mins by ethidium bromide staining based agarose gel electrophoresis.

The subject of series [3] is HGC-27. Put plainly: Induction of apoptosis in human HGC-27 cells assessed as increase in cleaved caspase-9 expression at 1.1 to 10 uM incubated for 24 hrs by western blot assay. In kind it is functional, cell-based. To be noted: dose 1.1-10 µM. On the technique in general: In western blotting, separated proteins are transferred to a membrane and probed.
Series [4] can be described thus: AUC (0 to infinity) in Sprague-Dawley rat at 100 mg/kg, ip and measured upto 8 hrs by LC-MS/MS analysis. Format: ADME, organism-based. Details: dose 100 mg/kg, time < 8 hrs, route ip. To be noted: in vivo.
For series [5], the system named is HGC-27. The series can be described thus: Effect on cell morphology in human HGC-27 cells assessed as condensed morphology at 10 uM incubated for 48 hrs by giemsa staining based microscopic analysis. Format: functional.
The test system of series [6] is RAW264.7. The series can be described thus: Cytotoxicity against mouse RAW264.7 cells assessed as reduction in cell viability at <=11.11 for 24 hrs by MTT assay. In kind it is toxicity, cell-based. The settings on record: raw264.7, 24 h. For orientation: Tetrazolium dyes change colour on reduction, which living cells bring about.
In series [7] the test system is HGC-27. The series can be described thus: Anti-migration activity against human HGC-27 cells assessed as decrease in cell migration rate at 0.37 uM for 48 hrs by crystalline violet staining based assay. Format: functional.
The test system of series [8] is HGC-27. Put plainly: Antiproliferative activity against human HGC-27 cells assessed as cell viability at <= 0.41 uM for 48 hrs by MTT assay. To be noted: up to 0.41 µM. In kind it is functional.
For series [9], the system named is CT26.WT. Put plainly: Anti-tumor activity against mouse CT26.WT xenografted in BALB/c mouse assessed as decrease in tumor weight at 100 mg/kg, ip twice daily and measured upto 14 days relative to control. Format: functional, organism-based. To be noted: time <= 14.0 day.
In series [10] the test system is RKO. The series can be described thus: Induction of apoptosis in human RKO cells assessed as increase in caspase-3 activity at 1.1 to 10 uM incubated for 36 hrs by flow cytometry. In kind it is functional, cell-based. To be noted: dose 1.1-10 µM, DDE = dose-dependent effect. Background: Flow cytometry measures light scatter and fluorescence of single cells or particles in a stream.

Series [11] concerns RAW264.7. The series can be described thus: Antiinflammatory activity against LPS-stimulated mouse RAW264.7 cells assessed decrease in IL-1beta release at 6.6 uM incubated for 1 hrs followed by LPS stimulation and measured after 24 hrs by ELISA relative to control. In kind it is functional, cell-based. The settings on record: time 25.0 hrs.
For series [12], the system named is RAW264.7. The series can be described thus: Antiinflammatory activity in mouse RAW264.7 cells assessed as reduction in LPS-induced COX-2 expression at 6.6 uM incubated for 1 hrs followed by LPS stimulation and measured after 24 hrs by western blot analysis. To be noted: time 25.0 hrs. In kind it is functional, cell-based.
Series [13] relates to RKO. The series can be described thus: Induction of apoptosis in human RKO cells assessed as increase in caspase-3 activity at 3.3 uM incubated for 36 hrs by flow cytometry (Rvb= 1.08%). Format: functional.
Series [14] deals with T1, Nuclear factor NF-kappa-B complex (Homo sapiens). The series can be described thus: Inhibition of NF-kappaB activation in human HT-29 cells assessed as reduction in TNFalpha-stimulated NF-kappaB nuclear translocation at 10 uM for 24 hrs followed by TNF- alpha stimulation for 1 hrs by DAPI staining based immunofluorescence assay. Format: cell-based. The settings on record: time 25.0 hrs.

For series [15], the system named is CT26.WT. The series can be described thus: Anti-tumor activity against mouse CT26.WT xenografted in BALB/c mouse assessed as increase in apoptosis at 100 mg/kg, ip twice daily and measured after 14 days by TUNEL staining based assay. Format: functional, organism-based. To be noted: time 14.0 day.
Series [16] has as its system RAW264.7. Put plainly: Inhibition of LPS induced NO production in mouse RAW264.7 cells at 1.1 uM incubated for 1 hrs followed by LPS stimulation and measured after 24 hrs by Griess reagent based assay. In kind it is functional, cell-based. To be noted: time 25.0 hrs.
Series [17] relates to HGC-27. Put plainly: Induction of apoptosis in human HGC-27 cells assessed as increase in caspase-3 activity at 3.3 uM incubated for 36 hrs by flow cytometry (Rvb= 9.39%). Format: functional.

One compound from ChEMBL document CHEMBL5137070, “N-2-(Phenylamino) Benzamide Derivatives as Dual Inhibitors of COX-2 and Topo I Deter Gastrointestinal Cancers via Targeting Inflammation and Tumor Progression” (J Med Chem, 2022) can be followed below.

The structures appear in SMILES notation. The source made the active and inactive calls. No cut-off for these calls is given here.

T1 sequence (P19838 whole entry, looked up): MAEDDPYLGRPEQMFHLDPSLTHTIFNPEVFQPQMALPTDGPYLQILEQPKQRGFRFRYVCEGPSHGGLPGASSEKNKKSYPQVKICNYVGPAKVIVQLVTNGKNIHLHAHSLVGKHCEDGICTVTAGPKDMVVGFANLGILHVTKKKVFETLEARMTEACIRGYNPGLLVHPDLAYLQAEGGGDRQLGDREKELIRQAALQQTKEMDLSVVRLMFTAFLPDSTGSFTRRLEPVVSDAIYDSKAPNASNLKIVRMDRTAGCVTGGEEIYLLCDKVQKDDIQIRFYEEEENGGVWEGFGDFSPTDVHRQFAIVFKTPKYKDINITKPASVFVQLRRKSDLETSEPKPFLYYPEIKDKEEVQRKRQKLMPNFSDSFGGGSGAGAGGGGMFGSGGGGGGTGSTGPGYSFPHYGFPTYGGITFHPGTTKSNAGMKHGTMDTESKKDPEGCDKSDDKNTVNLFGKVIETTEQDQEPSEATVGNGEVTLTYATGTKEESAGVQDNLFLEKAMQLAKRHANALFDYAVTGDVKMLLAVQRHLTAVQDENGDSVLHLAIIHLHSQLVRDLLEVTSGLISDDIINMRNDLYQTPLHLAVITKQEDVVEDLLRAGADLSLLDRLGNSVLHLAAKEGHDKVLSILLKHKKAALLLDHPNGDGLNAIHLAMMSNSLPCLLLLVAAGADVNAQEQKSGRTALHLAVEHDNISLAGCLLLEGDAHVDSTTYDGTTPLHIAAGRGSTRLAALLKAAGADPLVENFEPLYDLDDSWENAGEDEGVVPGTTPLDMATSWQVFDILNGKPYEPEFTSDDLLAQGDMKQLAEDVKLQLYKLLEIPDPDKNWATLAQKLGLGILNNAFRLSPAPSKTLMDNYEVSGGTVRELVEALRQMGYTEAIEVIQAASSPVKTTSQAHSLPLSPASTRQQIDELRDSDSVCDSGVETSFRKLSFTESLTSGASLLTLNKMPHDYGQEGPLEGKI
T1 sequence (Q00653 whole entry, looked up): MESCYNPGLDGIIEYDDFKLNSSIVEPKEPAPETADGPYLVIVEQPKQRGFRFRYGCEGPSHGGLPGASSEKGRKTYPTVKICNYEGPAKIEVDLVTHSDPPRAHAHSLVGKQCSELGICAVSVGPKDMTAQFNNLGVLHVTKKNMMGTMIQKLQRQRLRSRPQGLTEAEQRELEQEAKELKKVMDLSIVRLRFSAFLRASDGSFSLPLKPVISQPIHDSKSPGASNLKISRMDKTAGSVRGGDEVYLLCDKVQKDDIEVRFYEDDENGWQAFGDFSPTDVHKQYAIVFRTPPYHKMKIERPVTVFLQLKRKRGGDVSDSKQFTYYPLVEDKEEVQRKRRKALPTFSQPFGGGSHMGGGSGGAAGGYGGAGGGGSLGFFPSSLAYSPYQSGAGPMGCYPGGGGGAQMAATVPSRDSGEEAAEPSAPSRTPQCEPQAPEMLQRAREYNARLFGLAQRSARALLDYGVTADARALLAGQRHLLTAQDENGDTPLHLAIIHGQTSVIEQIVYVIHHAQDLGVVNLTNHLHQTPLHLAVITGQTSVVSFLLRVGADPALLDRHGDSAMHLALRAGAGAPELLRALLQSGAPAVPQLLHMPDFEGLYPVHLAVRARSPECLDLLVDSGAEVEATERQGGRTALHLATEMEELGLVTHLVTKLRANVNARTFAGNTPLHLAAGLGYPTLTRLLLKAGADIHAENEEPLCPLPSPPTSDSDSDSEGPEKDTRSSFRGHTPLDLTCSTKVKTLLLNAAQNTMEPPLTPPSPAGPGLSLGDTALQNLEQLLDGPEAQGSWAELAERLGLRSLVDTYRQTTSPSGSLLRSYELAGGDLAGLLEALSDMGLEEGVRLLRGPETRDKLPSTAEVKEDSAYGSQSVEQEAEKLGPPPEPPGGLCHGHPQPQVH
T1 sequence (Q04206 whole entry, looked up): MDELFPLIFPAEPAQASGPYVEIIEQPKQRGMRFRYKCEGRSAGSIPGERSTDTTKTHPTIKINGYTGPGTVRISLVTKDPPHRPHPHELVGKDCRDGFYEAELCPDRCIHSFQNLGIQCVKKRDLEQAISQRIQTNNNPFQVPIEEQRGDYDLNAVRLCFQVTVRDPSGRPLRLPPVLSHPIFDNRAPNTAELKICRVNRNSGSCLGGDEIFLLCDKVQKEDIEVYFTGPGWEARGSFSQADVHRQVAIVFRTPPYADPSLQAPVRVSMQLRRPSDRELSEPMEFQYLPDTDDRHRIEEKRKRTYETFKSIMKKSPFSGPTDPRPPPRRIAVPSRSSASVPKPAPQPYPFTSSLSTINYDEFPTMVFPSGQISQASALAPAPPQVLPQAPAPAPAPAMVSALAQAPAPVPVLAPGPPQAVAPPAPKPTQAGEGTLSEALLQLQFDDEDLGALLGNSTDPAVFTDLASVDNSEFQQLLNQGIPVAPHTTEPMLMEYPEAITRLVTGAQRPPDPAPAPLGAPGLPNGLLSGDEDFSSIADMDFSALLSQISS

With `Cc1c(Cl)cccc1Nc1ccc(F)cc1C(=O)NCc1ccc(O)c(O)c1`, the inhibition entry in [1], in series [14] and in series [16] was “Active” in each case. For the same compound, the IC50 in [2] was found to be 4.42 µM. Also, the outcome in [3], in series [5], in series [7], in series [9], in series [11] and in series [12] was Active. Also, the outcome in [15] was Active. Besides, in series [4], the AUC(0-inf) is 18600 ng·h/mL. In addition, the Activity in series [6] is greater than 80%; in series [8], greater than 80%; in series [10], “Dde”; in series [13], 55.24%; in [17], 68.8%.

One may read the IC50 as the concentration that inhibits the measured activity by half. One may read the AUC(0-inf) as total exposure, with the tail of the curve extrapolated. Low values mean low exposure, high ones high exposure.
